Data taken from patent publication US20220062147A1, “Skin Care Formulation for Treatment of Cellulite” (BOTTLED SCIENCE LIMITED, priority 2020, published 2022).

Tested on: subjects with cellulite
Experiment: Superoxide dismutase administered to subjects with cellulite; subcutaneous fat measured after 90 days
Assay type: in vivo, human
From the text: Similarly, there was a 23% reduction in subcutaneous fat compared with the placebo after 90 days at the femoral fold.

For superoxide dismutase, the “reduction in subcutaneous fat compared with the placebo at the femoral fold” value (after 90 days, femoral fold, vs placebo) was 23%, the “reduction in subcutaneous fat compared with the placebo at the gluteal fold” value (after 90 days, gluteal fold, vs placebo) was 28% and the “subcutaneous fat at the femoral fold (FIG. 1, right-hand chart)” value (clinical trials, femoral fold, result in words) was “significantly reduces”. The “subcutaneous fat at the gluteal fold (FIG. 1, left-hand chart)” value (clinical trials, gluteal fold, result in words) was “significantly reduces”.
